{
  "source": "paper PMC7156724",
  "about": "“Potent BRD4 inhibitor suppresses cancer cell-macrophage interaction” (Nature Communications, 2020)",
  "key": {"[1]": {"assay": "Metabolic stability assay, mouse liver microsomes", "settings": "for Remaining in mouse liver microsomes (Sup Fig.6a): in % (unit assumed)", "protocol": "7. Metabolic stability assay. The metabolic profile of NHWD-870 was determined using mouse, rat, dog, monkey, and human liver microsomes using the protocols […]\nNo. Compound ID Exat Mass Stock Conc.\n1) 100 mM potassium phosphate buffer, PH7.4; 2) 10mM MgCI2\n1) Intermediate solution: Dilute 5 μL of compound or control from stock solution (10 mM) with 45 uL DMSO,then mixed with 450 μL 1:1 Methanol/Water (Conc.: 10 0 […]\n2) Working solution: Dilute 50 μL from intermediate solution with 450 μL 100 mM potassium phosphate buffer (Conc.: 10 μM, 4.5%MeOH)\n(3) NADPH regenerating system (final Isocitric dehydrogenase conc.= 1 unit/mL at […]\n1) β-Nicotinamide adenine dinucleotide phosphate, Vendor: sigma Cat. No. N0505\n2) Isocitric acid, Vendor: Sigma Cat. No. I1252\n3) Isocitric dehydrogenase, Vendor: sigma Cat. No. I2002\n(4) Liver microsome solution preparation (final concentration o f 0.5 mg protein/mL) […]\nCold ACN including 100 ng/mL Tolbutamide and 100 ng/mL Labetalol as internal […]\n1) Add 10 μL compound or control working solution/well to all plates (T0, T5, T10, T20, T30, T60, NCF60) except matrix blank.\n2) Dispense 680 μL/well microsome solution to 96-well plate as reserv oir according to […]\nplate map. Then add 80 μL/well to every plate by Apricot, incubate the mixture of microsome solution and compound at 37℃ for about 10 min.\n3) Add 10 μL 100 mM potassium phosphate buffer/well to NCF60, incubate at 37℃, […]\n4) After pre-warming, dispense 90 μL/well NADPH regenerating system to 96-well plate as reservoir according to the plate map. Then add 10 μL/well to every plate by Apricot to start reaction.\n5) Incubate at 37℃, start timer 2.\n6) Add 300 (μL/well) stop solution (cold in 4℃, including 100 ng/mL Tolbutamide and 100 ng/mL Labetalol) to terminate the reaction.\n7) The sampling plates are shaked for approx 10 min.\n8) Samples are centrifuged at 4000 rpm for 20 min under 4℃.\n9) While centrifuging, load 8×new 96-well plate with 300 μL HPLC water, then transfer 100 μL supernatant, mixed for LC/MS/MS.\nUse equation of first order kinetics to calculate t1/2 and Clin t(mic): […]\nEquation of first order kinetics: […]"}, "ES-2 cells": {"system": "ES-2 cells", "assay": "MTT cell growth assay, ES-2", "format": "cell-based, human", "settings": "5 days", "protocol": "Fig. 2 NHWD-870 inhibited BRD4 phosphorylation and c-MYC expression, and suppressed cell growth. a Representative western blot analysis of p-BRD4 (s484/488), BRD4, c-MYC, and GAPDH after treatment of MDA-MB231, SUM159, A2780 ES-2, and H526 cells with JQ-1 or NHWD-870 at the indicated concentrations for 24 h. GAPDH served as the loading control. Selected from three independent experiments. b MTT assays of H526, A2780, ES-2, and MDA-MB231 cells treated with JQ-1 or NHWD-870 at the indicated concentrations for 5 days. Data are presented as mean ± SEM from three independent experiments. c, d Clonogenic assays of H526, A2780, ES-2 and MDA-MB231 cells treated with 250 nM JQ-1 or NHWD-870 for 5 days. Shown are representative images (c) and quantification of colonies (d). […] Shown are representative images (e) and quantification of relative colony sizes (f). Scale bar, 50 μm. Data are presented as mean ± SEM from five independent experiments. p values were calculated using two-tailed, unpaired t tests in this figure. **p < 0.01; ***p < 0.001. Source data are provided as a Source Data file.\n37℃, 5% CO2. […]"}, "A375 melanoma cells": {"system": "A375 melanoma cells", "assay": "AlamarBlue assay, A375", "format": "cell-based, human", "settings": "for Cellular activity in melanoma cells (A375), alamarBlue: Fig.1g, replicates", "protocol": "3. AlamarBlue assay. AlamarBlue was made by resazurin sodium salt (Sigma, Cat\n# 199303) dissolved in PBS.\nNCI-H211, MDA-MB231 and A375 cells were plated in 96-well plates at approximately 30% confluence and left overnight to adhere. In the following day, […]\nof treatment, 10 μl AlamarBlue reagent (0.3 mg/ml) was added to each well, and after 18h, the florescence intensity in each well was measured using a top-reading fluorescent plate reader with excitation at 530 nm and emission at 590 nm. […]"}, "[2]": {"settings": "mouse, liver microsomes, pH 7.4"}},
  "note": "Several values for one entry are separate records, joined by “and”; a condition that tells them apart may be missing. Equal entries are not always repeated.",
  "data": [
    {"smiles": "Cc1nnn(C)c1-c1cnc2c3c4cnn(C)c4ccc3n([C@H](c3ccccc3)C3CCOCC3)c2c1", "note": "[NHWD-870]", "values": [
      {"measurement": "Remaining (T=60min)", "setting": "[1]; mouse liver microsomes", "value": 36.2, "unit": "%"},
      {"measurement": "Remaining (*NCF=60min)", "setting": "[1]; mouse liver microsomes, no cofactor", "value": 70.1, "unit": "%"},
      {"measurement": "CLint scaled at 1 µM", "setting": "[1]; [2]", "value": 139, "unit": "mL/min/kg"},
      {"measurement": "half-life at 1 µM", "setting": "[1]; [2]", "value": 39.4, "unit": "min"},
      {"measurement": "microsomal CLint at 1 µM", "setting": "[1]; mouse, microsomes, pH 7.4", "value": 35.2, "unit": "µL/min/mg"},
      {"measurement": "Remaining in mouse liver microsomes (Sup Fig.6a)", "setting": "[1]; time 0", "value": 100},
      {"measurement": "Remaining in mouse liver microsomes (Sup Fig.6a)", "setting": "[1]; time 5", "value": 95.208},
      {"measurement": "Remaining in mouse liver microsomes (Sup Fig.6a)", "setting": "[1]; time 10", "value": 82.243},
      {"measurement": "Remaining in mouse liver microsomes (Sup Fig.6a)", "setting": "[1]; time 20", "value": 62.59},
      {"measurement": "Remaining in mouse liver microsomes (Sup Fig.6a)", "setting": "[1]; time 30", "value": 51.73},
      {"measurement": "Remaining in mouse liver microsomes (Sup Fig.6a)", "setting": "[1]; time 60", "value": 36.198},
      {"measurement": "MTT assay, relative cell number", "setting": "ES-2 cells; ES-2, 0.1 nM", "value": "0.993 and 0.983 and 0.961"},
      {"measurement": "MTT assay, relative cell number", "setting": "ES-2 cells; ES-2, 1 nM", "value": "0.911 and 0.921 and 0.934"},
      {"measurement": "MTT assay, relative cell number", "setting": "ES-2 cells; ES-2, 10 nM", "value": "0.355 and 0.301 and 0.382"},
      {"measurement": "MTT assay, relative cell number", "setting": "ES-2 cells; ES-2, 500 nM", "value": 0},
      {"measurement": "MTT assay, relative cell number", "setting": "ES-2 cells; ES-2, 1000 nM", "value": 0},
      {"measurement": "MTT assay, relative cell number", "setting": "ES-2 cells; ES-2, 5000 nM", "value": 0},
      {"measurement": "MTT assay, relative cell number", "setting": "ES-2 cells; ES-2, 10000 nM", "value": 0},
      {"measurement": "fold more potent than GSK-525762 or OTX015", "setting": "A375 melanoma cells; A375 cells", "value": "about 14 fold"},
      {"measurement": "fold more potent than I-BET151", "setting": "A375 melanoma cells; A375 cells", "value": "about 23 fold"},
      {"measurement": "Cellular activity in melanoma cells (A375), alamarBlue", "setting": "A375 melanoma cells; concentration(nM) 0.21442", "value": "0.8628 and 1.0579"},
      {"measurement": "Cellular activity in melanoma cells (A375), alamarBlue", "setting": "A375 melanoma cells; concentration(nM) 0.31236", "value": "16.3424 and 12.5613"},
      {"measurement": "Cellular activity in melanoma cells (A375), alamarBlue", "setting": "A375 melanoma cells; concentration(nM) 0.4103", "value": "30.3045 and 25.7042"},
      {"measurement": "Cellular activity in melanoma cells (A375), alamarBlue", "setting": "A375 melanoma cells; concentration(nM) 0.6032", "value": "65.3038 and 63.4524"},
      {"measurement": "Cellular activity in melanoma cells (A375), alamarBlue", "setting": "A375 melanoma cells; concentration(nM) 1.2043", "value": "75.3216 and 83.4358"},
      {"measurement": "Cellular activity in melanoma cells (A375), alamarBlue", "setting": "A375 melanoma cells; concentration(nM) 1.8024", "value": "92.8346 and 91.942"},
      {"measurement": "Cellular activity in melanoma cells (A375), alamarBlue", "setting": "A375 melanoma cells; concentration(nM) 2.4", "value": "100.774 and 99.5602"},
      {"measurement": "Cellular activity in melanoma cells (A375), alamarBlue", "setting": "A375 melanoma cells; concentration(nM) 3", "value": "101.341 and 101.79"},
      {"measurement": "IC50", "setting": "A375 melanoma cells; Homo sapiens, A-375, nM printed in b8, the picture prints no unit, read-out: IC50, cellular activity in A375 (alamarBlue)", "value": 2.46, "unit": "nM"}
    ]}
  ]
}
